Experiment [1] deals with Opiate Receptor, delta (OP1, DOP) (Homo sapiens, UniProt P41143). Kind of experiment: Radioligand competition binding, Opiate Receptor, delta (OP1, DOP), [3H]-naltrindole, CHO cells.
The next experiment deals with Opiate δ (Homo sapiens, UniProt P41143). Kind of experiment: Opiate δ receptor binding (Table 1). To be noted: for Fold change: Opiate δ Ki relative to ±BW373U86 (=1); for Ki: Table 1.
For experiment [2], the target named is T1, Opiate Receptor, kappa (OP2, KOP) (Homo sapiens, UniProt P41145).
T1 construct: expressed in transfected cells; host or cells: HEK-293 cells, membrane preparation
T1 sequence (P41145 whole entry): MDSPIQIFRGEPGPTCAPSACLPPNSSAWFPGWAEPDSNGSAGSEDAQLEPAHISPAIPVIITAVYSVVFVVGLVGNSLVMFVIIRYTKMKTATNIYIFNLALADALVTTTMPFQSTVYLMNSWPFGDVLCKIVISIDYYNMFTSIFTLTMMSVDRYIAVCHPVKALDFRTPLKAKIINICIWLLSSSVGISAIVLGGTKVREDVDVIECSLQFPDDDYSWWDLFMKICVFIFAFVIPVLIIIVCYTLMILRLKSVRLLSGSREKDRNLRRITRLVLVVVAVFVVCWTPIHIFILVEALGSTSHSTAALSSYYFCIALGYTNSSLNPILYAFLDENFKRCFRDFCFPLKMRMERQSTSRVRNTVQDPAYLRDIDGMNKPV
Kind of experiment: biochemical. It is filed as binding.

Experiment [3] concerns the target Opiate Receptor, μ (OP3, MOP) (Homo sapiens, UniProt P35372). Kind of experiment: Radioligand competition binding, Opiate Receptor, μ (OP3, MOP), [3H]-diprenorphine, CHO-K1 cells. On the technique in general: Displacement assays read how much labelled ligand stays bound in the presence of the test substance.
The target in the next experiment is Delta Opioid Receptor. Kind of experiment: Delta Opioid Receptor Binding, forebrain, representative data set. To be noted: radioligand [3H]Enkephalin, DPDPE, read-out: Kd (binding affinity). On the procedure: Binding characteristics for various receptors including, but not limited to, delta, kappa, and mu opioid receptors are determined.

Like-named read-outs stand apart in the source and are kept apart here.

Opiate Receptor, μ (OP3, MOP), sequence (P35372 whole entry): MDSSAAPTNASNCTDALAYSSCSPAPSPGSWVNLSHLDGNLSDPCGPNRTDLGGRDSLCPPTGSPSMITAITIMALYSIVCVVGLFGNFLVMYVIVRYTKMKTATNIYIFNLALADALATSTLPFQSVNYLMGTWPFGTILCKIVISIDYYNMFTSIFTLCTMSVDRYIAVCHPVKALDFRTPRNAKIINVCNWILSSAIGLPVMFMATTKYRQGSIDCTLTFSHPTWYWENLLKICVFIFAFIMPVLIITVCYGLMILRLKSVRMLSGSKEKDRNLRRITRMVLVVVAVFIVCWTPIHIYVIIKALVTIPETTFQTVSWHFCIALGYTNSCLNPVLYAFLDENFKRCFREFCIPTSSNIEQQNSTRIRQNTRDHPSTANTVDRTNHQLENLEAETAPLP
Opiate δ, sequence (P41143 whole entry): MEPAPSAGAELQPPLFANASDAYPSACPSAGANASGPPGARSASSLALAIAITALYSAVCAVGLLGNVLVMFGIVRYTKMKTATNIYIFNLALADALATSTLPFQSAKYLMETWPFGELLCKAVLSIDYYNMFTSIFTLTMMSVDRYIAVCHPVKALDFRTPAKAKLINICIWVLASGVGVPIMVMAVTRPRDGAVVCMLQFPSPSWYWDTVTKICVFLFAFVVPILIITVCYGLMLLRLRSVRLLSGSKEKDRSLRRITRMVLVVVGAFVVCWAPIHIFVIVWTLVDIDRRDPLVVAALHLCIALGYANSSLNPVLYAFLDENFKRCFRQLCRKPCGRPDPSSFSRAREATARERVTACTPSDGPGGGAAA
Opiate Receptor, delta (OP1, DOP), sequence (P41143 whole entry): as above

A word on the IC50: it is the midpoint of a concentration-inhibition curve. As a reminder, the Ki is the dissociation constant of the complex between target and ligand, obtained from inhibition or displacement. On to `CCN(CC)C(=O)c1ccc(C(c2cccc(OCCOCCOCCOCCOCCOCCOCCOC)c2)N2CCN(Cc3ccccc3)CC2)cc1` (centres unmarked) [mPEG7-N-benzyl-deallyl-demethyl-BW373U86, 4-[(4-Benzyl-1-piperazinyl)-3-O-methoxy(heptaethyleneglycol)benzyl]-N,N-diethylbenzamid], for which, in experiment [1], the IC50 came out at 106 nM, the Ki was 37.4 nM and the nH came out at 1.08.

Molecule `C=CCN1C[C@H](C)N([C@H](c2ccc(C(=O)N(CC)CC)cc2)c2cccc(OCCOCCOCCOCCOCCOCCOCCOC)c2)C[C@H]1C` [mPEG-7 + BW373U86, (+)-4-[(αR)-α-((2S,5R)-4-Allyl-2,5-dimethyl-1-piperazinyl)-3-O-methoxy(heptaethylene glycol)benzyl]-N,N-diethylbenzamid] displayed a Fold change at Opiate δ of 242.7. The Ki on Opiate δ (read-out: Opiate δ, Ki) stood at 864 nM.

In experiment [1], `CCN(CC)C(=O)c1ccc(C(c2cccc(OCCOCCOCCOC)c2)N2CCN(Cc3ccccc3)CC2)cc1` (centres unmarked) [mPEG3-N-benzyl-deallyl-demethyl-BW373U86, 4-[(4-Benzyl-1-piperazinyl)-3-O-methoxy(triethyleneglycol)benzyl]-N,N-diethylbenzamide] came in with an IC50 of 212 nM, a Ki of 74.7 nM and a nH of 1.50.

Regarding `C=CCN1C[C@H](C)N([C@H](c2ccc(C(=O)N(CC)CC)cc2)c2cccc(OCCOCCOCCOC)c2)C[C@H]1C` (racemic) [mPEG-3 ± BW373U86, (±)-4-[(αR)-α-((2S,5R)-4-Allyl-2,5-dimethyl-1-piperazinyl)-3-O-methoxy(triethylene glycol)benzyl]-N,N-diethylbenzamid], the Ki on Opiate δ (read-out: Opiate δ, Ki) is ~415 nM.

In the case of `C=CCN1C[C@H](C)N([C@H](c2ccc(C(=O)N(CC)CC)cc2)c2cccc(OCCOCCOCCOC)c2)C[C@H]1C` [mPEG-3 + BW373U86, (+)-4-[(αR)-α-((2S,5R)-4-Allyl-2,5-dimethyl-1-piperazinyl)-3-O-methoxy(triethylene glycol)benzyl]-N,N-diethylbenzamid], the IC50 in experiment [1] (read-out: IC50) was determined as 723 nM. The Ki in experiment [1] (read-out: Ki) amounted to 255 nM; on Opiate δ (read-out: Opiate δ, Ki) it was 491 nM.

Consider `C=CCN1C[C@H](C)N([C@H](c2ccc(C(=O)N(CC)CC)cc2)c2cccc(O)c2)C[C@H]1C` [(+) BW373U86, (+)-4-[(αR)-α-((2S,5R)-4-Allyl-2,5-dimethyl-1-piperazinyl)-3-hydroxbenzyl]-N,N-diethylbenzamide, reference compound], for which, in experiment [1], the IC50 came out at 1 nM, the Ki was found to be 0.354 nM and the nH was 0.91. In experiment [2], this molecule came in with an IC50 of 223 nM, a Ki of 89.2 nM and a nH of 0.78. For the same molecule, in experiment [3], the IC50 was determined as 309 nM; the affinity, expressed as Ki, was 126 nM; the nH came out at 0.83.

Regarding `CCN(CC)C(=O)c1ccc(C(c2cccc(O)c2)N2CCN(Cc3ccccc3)CC2)cc1` (centres unmarked) [N-benzyl-deallyl-demethyl-BW373U86, 4-[(4-Benzyl-1-piperazinyl)-3-hydroxbenzyl]-N,N-diethylbenzamid], in experiment [1], the IC50 was 1.33 nM, affinity was put at a Ki of 0.47 nM and the nH is 0.99. In experiment [2], the midpoint of inhibition, the IC50, lay at 2370 nM; the Ki came to 946 nM; the nH worked out at 0.95. For the same molecule, in experiment [3], the IC50 was found to be 2750 nM, the Ki came out at 1110 nM and the nH is given as 0.90.

The Kd is the free concentration of one partner at which half of the binding sites on the other are occupied at equilibrium, for simple one-to-one binding. In the case of DPDPE [[3H]Enkephalin, DPDPE], at Delta Opioid Receptor, the dissociation constant Kd was 2.1 nM.

Take `Br.Br.C=CCN1CC(C)N(C(c2ccc(C(=O)N(CC)CC)cc2)c2cccc(O)c2)CC1C` (racemic) [(+/−) BW373U86 dihydrobromide, reference compound]: the IC50 worked out at 3.26 nM in experiment [1] (read-out: IC50), 556 nM in experiment [2] (read-out: IC50) and 659 nM in experiment [3] (read-out: IC50). The results for the Ki in experiment [1] (read-out: Ki), in experiment [2] (read-out: Ki) and in experiment [3] (read-out: Ki) were 1.15 nM, 223 nM and 268 nM, respectively. Moreover, the nH in experiment [2] and in experiment [3] was 0.92 throughout.

For the molecule `C=CCN1C[C@H](C)N([C@H](c2ccc(C(=O)N(CC)CC)cc2)c2cccc(OCCOCCOCCOCCOCCOCCOCCOC)c2)C[C@H]1C` (racemic) [mPEG-7 ± BW373U86, (±)-4-[(αR)-α-((2S,5R)-4-Allyl-2,5-dimethyl-1-piperazinyl)-3-O-methoxy(heptaethylene glycol)benzyl]-N,N-diethylbenzamid], the Fold change on Opiate δ is given as ~298. Besides, the inhibition constant (Ki) on Opiate δ (read-out: Opiate δ, Ki) is ~1330 nM.

Take `CCN(CC)C(=O)c1ccc([C@H](c2cccc(O)c2)N2C[C@@H](C)N(CCOCCOCCOC)C[C@@H]2C)cc1` (racemic) [mPEG3-N-(+/−)-BW373U86, (±)-4-[(αR)-α-((2S,5R)-4-methoxy(triethylene glycol)-2,5-dimethyl-1-piperazinyl)-3-hydroxybenzyl]-N,N-diethylbenzamide]: the IC50 in experiment [1] (read-out: IC50) is 764 nM; in experiment [3] (read-out: IC50) it was 9370 nM. Also, the Ki in experiment [1] (read-out: Ki) was 269 nM; in experiment [3] (read-out: Ki) it was 3810 nM.

As for `C=CCN1CCN(C(c2ccc(C(=O)N(CC)CC)cc2)c2cccc(OCCOCCOCCOCCOCCOCCOCCOC)c2)CC1` (centres unmarked) [mPEG7-demethyl-BW373U86, 4-[(4-Allyl-1-piperazinyl)-3-O-methoxy(heptaethylene glycol)benzyl]-N,N-diethylbenzamide], in experiment [1] (read-out: IC50), the IC50 was determined as 3470 nM. Also, the Ki in experiment [1] (read-out: Ki) was 1220 nM.

For `C=CCN1CCN(C(c2ccc(C(=O)N(CC)CC)cc2)c2cccc(O)c2)CC1` (centres unmarked) [demethyl-BW373U86, 4-[(4-Allyl-1-piperazinyl)-3-hydroxbenzyl]-N,N-diethylbenzamid], the results for the nH in experiment [1], in experiment [2] and in experiment [3] were 1.10, 0.87 and 1.02, respectively. Further, the IC50 stood at 7.09 nM in experiment [1] (read-out: IC50), 1000 nM in experiment [2] (read-out: IC50) and 11000 nM in experiment [3] (read-out: IC50). For the same molecule, the inhibition constant (Ki) turned out to be 2.5 nM in experiment [1] (read-out: Ki), 401 nM in experiment [2] (read-out: Ki) and 4450 nM in experiment [3] (read-out: Ki).

As to `C=CCN1CCN(C(c2ccc(C(=O)N(CC)CC)cc2)c2cccc(OCCOCCOCCOC)c2)CC1` (centres unmarked) [mPEG3-demethyl-BW373U86, 4-[(4-Allyl-1-piperazinyl)-3-O-methoxy(triethyleneglycol)benzy]-N,N-diethylbenzamid], the IC50 in experiment [1] (read-out: IC50) worked out at 6050 nM. Moreover, in experiment [1] (read-out: Ki), the Ki worked out at 2130 nM.

As to `C=CCN1C[C@H](C)N([C@H](c2ccc(C(=O)N(CC)CC)cc2)c2cccc(O)c2)C[C@H]1C` (racemic) [±BW373U86, (±)-4-[(αR)-α-((2S,5R)-4-Allyl-2,5-dimethyl-1-piperazinyl)-3-hydroxbenzyl]-N,N-diethylbenzamide, reference compound], on Opiate δ (Opiate δ, Ki (nM)), the affinity, expressed as Ki, was 0.36 nM.
